MIC and Ratio data for ten compounds are collected here from ChEMBL document CHEMBL2034835, “A solvent free, four-component synthesis and 1,3-dipolar cycloaddition of 4(H)-pyrans with nitrile oxides: synthesis and discovery of antimycobacterial activity of enantiomerically pure 1,2,4-oxadiazoles” (2012).

As usually defined, the MIC is the lowest concentration that inhibits growth of the organism. A low value points to inhibition by little substance.

Values after ≈ are worked out from the molar mass of the structure shown.

Common to all, as to assay type: functional
The test system of experiment [1] is Mycobacterium tuberculosis. The experiment in a line: Antitubercular activity against isoniazid, rifampicin and ethambutol-resistant Mycobacterium tuberculosis clinical isolate after 28 days by agar dilution method. As to conditions: 672 h.
The subject of experiment [2] is Mycobacterium tuberculosis. The experiment in a line: Ratio of rifampicin MIC to compound MIC for multidrug-resistant Mycobacterium tuberculosis clinical isolate.
In experiment [3] the test system is Mycobacterium tuberculosis. The experiment in a line: Ratio of ciprofloxacin MIC to compound MIC for multidrug-resistant Mycobacterium tuberculosis clinical isolate.
Experiment [4] has as its system Mycobacterium tuberculosis. The experiment in a line: Ratio of ethambutol MIC to compound MIC for multidrug-resistant Mycobacterium tuberculosis clinical isolate.
For experiment [5], the system named is Mycobacterium tuberculosis. The experiment in a line: Ratio of isoniazid MIC to compound MIC for multidrug-resistant Mycobacterium tuberculosis clinical isolate.

Compound `Cc1ccc(/C=C2\CN([C@H](C)c3ccccc3)CC3=C2OC(N)=C(c2nc(-c4ccc(Cl)cc4)no2)C3c2ccc(C)cc2)cc1` (stereo in doubt; 9d) returned an MIC in experiment [1] of 1.24 µM (≈ 0.778 µg/mL).

As for `C[C@H](c1ccccc1)N1CC2=C(OC(N)=C(c3nc(-c4ccccc4)no3)C2c2ccccc2Cl)/C(=C/c2ccccc2Cl)C1` (stereo in doubt; 9e), the lowest concentration to inhibit growth in experiment [1] (MIC) was 1.23 µM (≈ 0.779 µg/mL).

For the compound `C[C@H](c1ccccc1)N1CC2=C(OC(N)=C(c3nc(-c4ccc(Cl)cc4)no3)C2c2ccccc2Cl)/C(=C/c2ccccc2Cl)C1` (stereo in doubt; 9f), in experiment [1], the MIC was 0.6 µM (≈ 0.401 µg/mL).

In experiment [1], `C[C@H](c1ccccc1)N1CC2=C(OC(N)=C(c3nc(-c4ccccc4)no3)C2c2ccc(Cl)cc2Cl)/C(=C/c2ccc(Cl)cc2Cl)C1` (stereo in doubt; 9g) registered an MIC of 0.57 µM (≈ 0.4 µg/mL).

For the compound `C[C@H](c1ccccc1)N1CC2=C(OC(N)=C(c3nc(-c4ccc(Cl)cc4)no3)C2c2ccc(Cl)cc2Cl)/C(=C/c2ccc(Cl)cc2Cl)C1` (stereo in doubt; 9h), the Ratio in experiment [2] was 27.1; in experiment [3], 269.5; in experiment [4] it was 437; in experiment [5], 81.3. In experiment [1], this compound yielded an MIC of 0.14 µM (≈ 0.103 µg/mL).

For the compound `C[C@H](c1ccccc1)N1CC2=C(OC(N)=C(c3nc(-c4ccccc4)no3)C2c2ccccc2)/C(=C/c2ccccc2)C1` (stereo in doubt; 10a), in experiment [1], the lowest concentration to inhibit growth (MIC) was 5.54 µM (≈ 3.13 µg/mL).

In turn, `C[C@H](c1ccccc1)N1CC2=C(OC(N)=C(c3nc(-c4ccc(Cl)cc4)no3)C2c2ccccc2)/C(=C/c2ccccc2)C1` (stereo in doubt; 10b) registered an MIC in experiment [1] of 2.6 µM (≈ 1.56 µg/mL).

Take `CC[C@@H](CO)NCCN[C@@H](CC)CO` [ETHAMBUTOL]: it took 61.2 µM (≈ 12.5 µg/mL) to inhibit growth in experiment [1] (MIC).

Take `NNC(=O)c1ccncc1` [ISONIAZID]: in experiment [1], it took 11.4 µM (≈ 1.56 µg/mL) to inhibit growth (MIC).

In experiment [1], `CO[C@H]1/C=C/O[C@@]2(C)Oc3c(C)c(O)c4c(O)c(c(/C=N/N5CCN(C)CC5)c(O)c4c3C2=O)NC(=O)/C(C)=C\C=C\[C@H](C)[C@H](O)[C@@H](C)[C@@H](O)[C@@H](C)[C@H](OC(C)=O)[C@@H]1C` [RIFAMPIN] came in with an MIC of 3.8 µM (≈ 3.13 µg/mL).
